Reference: patent US7070965B1, “Small molecule anticancer compounds and related production process” (priority 1998, dated 2006)
“Also recorded” adds a separate entry of the source.

Columns and labels:
[1] = test system: UVB radiation-induced skin tumor; assay: Chemoprevention of UVB-induced skin cancer; type: in vivo, SKH-1 hairless mice; details: topical 200 μl of 10% iso-C15, 30 weeks, vs vehicle-treated group
Description: 13-methyltetradecanoic acid (iso-C15) was prepared by dissolving in NaOH solution and then in 0.8% Tween 80 with pH 7.5, with resulting concentration 10%.
Forty female SKH-1 hairless mice were divided into control and test groups, with 20 in each. The mice in both groups were treated topically once with 5.12 μg of DMBA dissolved in 200 μl acetone per mouse to achieve tumor initiation. One week later (day 8), animals in the test group were applied topically with 200 μl iso-C15 per application per mouse per day. The control group received 200 μl Tween 80 per application per mouse per day. Thirty minutes later, the animals in both groups were exposed to UVB (290–320 nm) radiation at a dose of 180 mJ/cm^2 per day to achieve UVB radiation-induced tumor promotion. The iso-C15 or vehicle treatments followed by UVB irradiation were performed twice a week up to 30 weeks from the start of UVB exposure. The animals were evaluated for tumor incidence at the end of 30 weeks.

[2] = test system: normal human peripheral blood lymphocytes (PBL); assay: Cytotoxicity on normal cells, viability assessment; type: cell-based; details: at concentrations lethal to tumor cells
Description: PBLs, K-562 and SNU-1 cells in suspension culture were seeded in 96-well microplates at a density of 5×10^4 cells/well for K-562 and SNU-1, and 1×10^5 cells/well for PBLs. iso-C15 were diluted with medium to provide different concentrations (0, 1.5, 3.0, 6.0, 15.0, 30.0, and 60.0 μg/ml). Both untreated and solvent (NaOH and Tween 80) treated cells served as controls. After incubation for 48 hours at 37° C., cells were collected directly from the wells for viability assessment.
The ID50, ID75 and ID90 were determined in duplicate in every set of experiments, and each experiment was repeated three times under identical conditions. ID50, ID75 and ID90 were defined as the concentration of iso-C15 required to kill 50, 75 or 90%, respectively, of cells (compared with that in untreated cells) and computed using CalcuSyn for Windows software (Biosoft, Cambridge UK) based on Median Effect method by Dr. T. C. Chou.

[3] = Human clinical studies on the safety of iso-C15; type: in vivo
Description: Chemically synthesized iso-C15 of 99.8% purity were prepared in 0.20 g capsules. Six healthy adult volunteers (4 male, 2 female) of average age 35.6 were divided into three groups, and orally received iso-C15 capsules for thirty days. Low dose group: one case, 0.6 g daily; middle dose group: two cases, 1.2 g daily; high dose group: three cases, 1.8 g daily. The examinations were carried out before, during and after experiment, including physical examinations, blood and urine routine examinations, function of heart, liver and kidney, X-ray radioscopy of lung and subjective symptom.

[4] = test system: K562 leukemia cell line; assay: DNA fragmentation gel electrophoresis; type: cell-based, human; details: 60 μg/ml
Description: The gel electrophoresis assay was used for the detection of apoptosis-specific internucleosonal DNA degradation in these cells. […] After centrifuged at 14,000 RPM for 20 min at 4° C., the supernatants were transferred to new tubes and treated with RNase and proteinase K respectively. Supernatants were extracted with phenol/chloroform twice, and fragmented DNA was precipitated in ethanol. Samples were electrophoresed in a 1.5% agarose gel in 1× TAE buffer. The gel was stained with ethidium bromide and destained with distilled water. The fragmented DNA was then visualized under UV light.

[5] = test system: human prostate carcinoma DU145; assay: Orthotopic nude mice model of human prostate carcinoma DU145; type: in vivo; details: for Mean tumor weight / TIR (tumor inhibition rate): oral once a day
Description: 13-methyltetradecanoic acid (iso-C15) was chemically synthesized in the inventor's laboratory, as described in Example 5, infra, (purity of 99.8%) was prepared by dissolving in NaOH solution and then in 0.35% Tween 80 with pH7.5.
Total of 24 male athymic BALB/c nude mice between 4 and 5 weeks of age were bred and maintained in specific pathogen free condition.
Human prostate carcinoma DU145 tumor was implanted and maintained subcutaneously in the flank of athymic nude mice. Prior to orthotopic implantation, the tumor was harvested in log phase. The peripheral tumor tissue was collected and minced to small pieces of one cubic millimeter each.
The mice were anesthetized for surgical orthotopic implantation. A small incision was made along the midline of the lower abdomen. After proper exposure of the bladder and prostate, the capsule of the prostate was opened and three pieces of DU145 tumor fragments were inserted into the capsule. The capsule was then closed using 8-0 suture, and the abdomen was closed using a 6-0 surgical suture.
The mice bearing orthotopic DU145 were randomly divided into control and test groups of eight mice each at the second day after tumor implantation. The iso-C15 prepared above at doses 35 and 70 mg/kg and PBS were administered by gavage once a day in low dose and high dose test groups and control group, respectively, for […].
All the mice were sacrificed by CO2 inhalation at day-40 after the start of treatment. The weights of primary tumors and bodies were measured. Tissue samples of the primary tumors were processed through standard procedures of hematoxylin and eosin staining for microscopic examination.
The tumor inhibition rates (TIR) were determined by comparing the mean tumor weight of the test groups (T) with that of the control group (C) and expressed as a (C)−T)/C percentage, and were analyzed by Student's test for statistical significance.

[6] = 0.6–1.8 g daily oral, thirty days
[7] = after test, 0.6–1.8 g daily oral, thirty days

With `CC(C)CCCCCCCCCCCC(=O)O` [iso-C15, 13-methyltetradecanoic acid] the “reduction in tumor incidence” value [1] was 40%, the “reduction of tumor volume” value [1] was 90% and the “toxicity against normal human peripheral blood lymphocytes” value [2] was “not toxic against normal human peripheral blood lymphocytes”. The “toxicity / side effects in volunteers” value ([3]; 0.6 g–1.8 g daily for one month, oral) was “without any side effects; also recorded: without any toxicity effects”, the “heart and lung, electrocardiogram (EKG) and X-ray radioscopy” value [3, 6] was “No abnormality” and the urine routine [3, 6] was “no abnormality”. The ALT [3, 7] was 15.00 ± 10.33 μ/L, the BUN [3, 7] was 6.47 ± 1.72 mmol/L and the GRAN [3, 7] was 3.80 ± 0.89 × 10^9. The HB [3, 7] was 128 ± 16.9 g/L, the PLT [3, 7] was 232.0 ± 52.1 × 10^9/L and the RBC [3, 7] was 4.62 ± 0.69 × 10^12/L. For the same compound, the WBC [3, 7] was 7.50 ± 0.71 × 10^9/L, the ALT ([3]; before test, X ± SD, 6 cases) was 15.17 ± 8.70 μ/L and the BUN ([3]; before test, X ± SD, 6 cases) was 6.69 ± 2.14 mmol/L. The GRAN ([3]; before test, X ± SD, 6 cases) was 3.20 ± 0.59 × 10^9, the HB ([3]; before test, X ± SD, 6 cases) was 122 ± 10.4 g/L and the PLT ([3]; before test, X ± SD, 6 cases) was 203.0 ± 33.3 × 10^9/L. For the same compound, the RBC ([3]; before test, X ± SD, 6 cases) was 4.64 ± 0.40 × 10^12/L, the WBC ([3]; before test, X ± SD, 6 cases) was 5.80 ± 0.95 × 10^9/L and the “apoptotic DNA fragmentation” value [4] was “fragmented low molecular weight DNA bands were seen at 2 hour and were prominent at 8 hour treated”. For the same compound, the Mean tumor weight ([5]; 35 mg/kg) was 493.25 mg, the “TIR (tumor inhibition rate)” value ([5]; 35 mg/kg) was 54.8% and the Mean tumor weight ([5]; 70 mg/kg) was 168.00 mg. For the same compound, the “TIR (tumor inhibition rate)” value ([5]; 70 mg/kg) was 84.6%, the “signs of toxicity (body weight curve, histology slides)” value ([5]; 35 and 70 mg/kg oral) was “no signs of toxicity” and the “mice in which the implanted tumor did not grow” value ([5]; high dose, 70 mg/kg, eight mice per group) was “four”.
